Consider 11 compounds from ChEMBL document CHEMBL1201862, “PubChem BioAssay data set” (2004).

Each structure is given as a SMILES string.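 Each compound was tested at five concentrations against cells in 96-well plates for 48 hours. At the GI50, growth is halved.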 Calls of active or inactive are those of the source. No stated cut-off is given here; in the data, active = GI50 up to about 1.1 µM and inactive = higher. Some results are limits rather than exact numbers.

Some test systems named below: 786-0; ACHN; HCT-116; HOP-62; M14; MDA-MB-435; MDA-N; NCI-H226; NCI-H460; OVCAR-3; OVCAR-8; PC-3; SK-MEL-28; SK-MEL-5; SNB-19; U-251; UACC-62; HCC 2998; OVCAR-4; UO-31.
Assay in all cases: NCI tumour cell line growth inhibition, 48 h

`S=C(c1c[nH]c2ccccc12)N1CCN(c2ccccc2)CC1`: the GI50 in the assay with 786-0 was 46.9 µM (inactive); in the assay with ACHN, 87.1 µM (inactive); in the assay with HCT-116 it was > 100 µM (inactive); in the assay with HOP-62 it was 75.3 µM (inactive); with M14, > 100 µM (inactive); in the assay with MDA-MB-435, > 100 µM (inactive). Also, the GI50 with MDA-N is > 100 µM (inactive); in the assay with NCI-H226 it was 7.76 µM (inactive); in the assay on NCI-H460 it was > 100 µM (inactive); in the assay on OVCAR-3, > 100 µM (inactive); with OVCAR-8, 37.8 µM (inactive); in the assay with PC-3, > 100 µM (inactive). The GI50 with SK-MEL-28 was 86.9 µM (inactive); in the assay with SK-MEL-5, 80 µM (inactive); in the assay on SNB-19, > 100 µM (inactive); in the assay with U-251, 14.2 µM (inactive); in the assay on UACC-62 it was > 100 µM (inactive).
Take `c1ccc2c(c1)nc1n2sc2nc3ccccc3n21`: the GI50 with 786-0, in the assay with HCC 2998, in the assay with HCT-116, with M14, in the assay on MDA-MB-435 and with NCI-H226 was > 100 µM (inactive) each time. Further, the GI50 in the assay on NCI-H460, in the assay with OVCAR-3, in the assay with OVCAR-4, in the assay with OVCAR-8, in the assay on PC-3 and with SK-MEL-28 was > 100 µM (inactive) in each case. For the same compound, the GI50 with SK-MEL-5 was > 100 µM (inactive); in the assay with U-251, > 100 µM (inactive); in the assay on UACC-62 it was 51.6 µM (inactive); in the assay on UO-31, > 100 µM (inactive).
Turning to `CC(=O)NNc1nc(C)c(C(=O)NNC(=O)C(=O)Nc2c(Cl)cc([N+](=O)[O-])cc2Cl)s1`, the GI50 in the assay with 786-0 was 33 µM (inactive); in the assay on ACHN, 31.8 µM (inactive); in the assay on HCC 2998 it was 37.8 µM (inactive); with HCT-116, 34.5 µM (inactive); with HOP-62, 56.6 µM (inactive); in the assay with M14, 52.1 µM (inactive). For the same compound, the GI50 with NCI-H226 was 24 µM (inactive); with NCI-H460 it was 43.2 µM (inactive); with OVCAR-3 it was 21 µM (inactive); in the assay with OVCAR-4, 22.1 µM (inactive); in the assay on OVCAR-8, 34.1 µM (inactive); in the assay on SK-MEL-28 it was 26.4 µM (inactive). In addition, the GI50 in the assay with SK-MEL-5 was 40 µM (inactive); in the assay with SNB-19, 43.8 µM (inactive); in the assay on U-251, > 100 µM (inactive); with UACC-62 it was 29.9 µM (inactive); in the assay on UO-31, 27.4 µM (inactive).
With `Cc1cc(N(CCC#N)CCC#N)ccc1/C=C\C(=O)Nc1ccccc1`, the GI50 was > 100 µM (inactive) in the assay on 786-0; 4.43 µM (inactive) with ACHN; 13.6 µM (inactive) in the assay on HCC 2998; > 100 µM (inactive) in the assay on HCT-116; 57 µM (inactive) with HOP-62; 2.9 µM (inactive) in the assay on M14. Further, the GI50 is > 100 µM (inactive) in the assay on NCI-H226; 71.3 µM (inactive) in the assay with NCI-H460; > 100 µM (inactive) with OVCAR-3; 62.4 µM (inactive) in the assay with OVCAR-4; > 100 µM (inactive) with OVCAR-8; > 100 µM (inactive) in the assay with SK-MEL-28. Further, the GI50 is > 100 µM (inactive) in the assay on SK-MEL-5; > 100 µM (inactive) in the assay on SNB-19; > 100 µM (inactive) in the assay with U-251; 0.931 µM (active) in the assay with UACC-62; 33.5 µM (inactive) in the assay with UO-31.
In the case of `CO[C@@]1(c2ccccc2)O[C@H]2OCCC2[C@H]1c1ccc(Cl)cc1` (some centres undefined), the GI50 in the assay with 786-0 was 32 µM (inactive); with ACHN it was 34 µM (inactive); in the assay with HCC 2998, 35.3 µM (inactive); in the assay with HCT-116, 27.6 µM (inactive); in the assay on HOP-62, 40.8 µM (inactive); with M14, 37.6 µM (inactive). Further, the GI50 with NCI-H226 was 33.4 µM (inactive); with NCI-H460, 23.2 µM (inactive); in the assay on OVCAR-3 it was 16.5 µM (inactive); in the assay with OVCAR-4 it was 26.6 µM (inactive); with OVCAR-8, 33.7 µM (inactive); with SK-MEL-28, 63.8 µM (inactive). The GI50 in the assay on SK-MEL-5 is 17 µM (inactive); with SNB-19 it was 40.1 µM (inactive); with U-251, 28.2 µM (inactive); in the assay on UACC-62, 34.2 µM (inactive); in the assay on UO-31, 25.4 µM (inactive).
With `COc1cccc(C2c3cc4c(cc3OC3COC(=O)C32)OCO4)c1OC` (centres undefined), the GI50 is > 100 µM (inactive) in the assay on 786-0; > 100 µM (inactive) in the assay on ACHN; > 100 µM (inactive) with HCC 2998; 20.2 µM (inactive) with HCT-116; 61.1 µM (inactive) with HOP-62; > 100 µM (inactive) in the assay with M14. In addition, the GI50 was 3.93 µM (inactive) with MDA-N; > 100 µM (inactive) with NCI-H226; > 100 µM (inactive) in the assay with NCI-H460; > 100 µM (inactive) in the assay with OVCAR-3; 64.6 µM (inactive) in the assay with OVCAR-4; > 100 µM (inactive) with OVCAR-8. Further, the GI50 is > 100 µM (inactive) in the assay on PC-3; > 100 µM (inactive) in the assay with SK-MEL-28; > 100 µM (inactive) in the assay with SK-MEL-5; > 100 µM (inactive) with SNB-19; 68.2 µM (inactive) in the assay on UACC-62; > 100 µM (inactive) in the assay with UO-31.
In the case of `COC(=O)C1CC(=O)CCC1c1ccccc1` (centres undefined), the GI50 with 786-0, in the assay with ACHN, with HCC 2998, with HCT-116, with HOP-62 and with M14 was > 100 µM (inactive) in each case. Moreover, the GI50 in the assay on NCI-H226, in the assay on NCI-H460, with OVCAR-3, in the assay on OVCAR-4, with OVCAR-8 and with SK-MEL-28 was > 100 µM (inactive) in each case. Besides, the GI50 in the assay on SK-MEL-5, in the assay with SNB-19, in the assay with U-251, in the assay on UACC-62 and in the assay on UO-31 was > 100 µM (inactive) each time.
For the compound `CC(=O)OCC1=C(C)C(OC(=O)C(OC(C)=O)[C@@H](NC(=O)c2ccccc2)c2ccccc2)CCC1(C)C` (some centres undefined), the GI50 in the assay on 786-0, in the assay with ACHN, in the assay with HCC 2998, with HCT-116, in the assay on HOP-62 and in the assay with MDA-MB-435 was > 100 µM (inactive) throughout. Also, the GI50 with MDA-N, in the assay with NCI-H226, in the assay on NCI-H460, in the assay with OVCAR-3, in the assay on OVCAR-4 and in the assay with OVCAR-8 was > 100 µM (inactive) throughout. Also, the GI50 in the assay with SK-MEL-28, in the assay on SK-MEL-5, in the assay with SNB-19, in the assay with U-251, with UACC-62 and in the assay on UO-31 was > 100 µM (inactive) each time.
Regarding `CCCCC(CCCC)=NNC(=S)SC`, the GI50 in the assay on 786-0 is 34.8 µM (inactive); with ACHN, 29.6 µM (inactive); in the assay on HCC 2998 it was 15.4 µM (inactive); in the assay with HCT-116 it was 17.4 µM (inactive); with HOP-62 it was 40.6 µM (inactive); in the assay with M14, 17.3 µM (inactive). For the same compound, the GI50 was 17.9 µM (inactive) in the assay on MDA-MB-435; 16.1 µM (inactive) in the assay on NCI-H226; 30.3 µM (inactive) with NCI-H460; 18.9 µM (inactive) with OVCAR-4; 19.2 µM (inactive) with OVCAR-8; 40.1 µM (inactive) with PC-3. For the same compound, the GI50 with SK-MEL-28 was 37.2 µM (inactive); in the assay on SK-MEL-5, 16.1 µM (inactive); in the assay on SNB-19 it was 24.3 µM (inactive); in the assay with U-251 it was 29.6 µM (inactive); with UACC-62 it was 22 µM (inactive); in the assay with UO-31, 24.7 µM (inactive).
For the compound `Cc1c(-c2cc(-c3ccccc3)n[nH]c2=O)c2ccccc2n1C`, the GI50 with 786-0, in the assay on ACHN, in the assay on HCC 2998, in the assay on HCT-116, in the assay on HOP-62 and with M14 was > 100 µM (inactive) each time. Besides, the GI50 in the assay with NCI-H226, in the assay with NCI-H460, in the assay with OVCAR-3, with OVCAR-4, in the assay on OVCAR-8 and with SK-MEL-28 was > 100 µM (inactive) each time. Moreover, the GI50 in the assay with SK-MEL-5, with SNB-19, in the assay on U-251, in the assay on UACC-62 and in the assay on UO-31 was > 100 µM (inactive) each time.
`Clc1cc(Cl)c2ns[s+]c2c1Cl`: the GI50 was > 100 µM (inactive) in the assay with 786-0; > 100 µM (inactive) in the assay on ACHN; > 10 µM (inactive) in the assay with HCC 2998; > 100 µM (inactive) in the assay with HCT-116; > 100 µM (inactive) with HOP-62; > 100 µM (inactive) with M14. Also, the GI50 in the assay on NCI-H226, in the assay with NCI-H460, in the assay with OVCAR-3, with OVCAR-4, in the assay with OVCAR-8 and in the assay on SK-MEL-28 was > 100 µM (inactive) in each case. Also, the GI50 in the assay on SK-MEL-5, in the assay with SNB-19, in the assay on U-251, in the assay with UACC-62 and with UO-31 was > 100 µM (inactive) in each case.
